Assay results: patent US11696895B2, “Fine particle coating (drug-containing hollow particle and method for manufacturing same)” (Sumitomo Pharma Co., Ltd., priority 2017, dated 2023)

Key:
[1] = Particle size distribution (laser diffraction, volume based); format: physicochemical; conditions: Table 2-2 particle sizes
Experimental: As used herein, “mean particle size” refers to cumulative 50% point of particle size D50 in volume based measurement of powder particles. Such a mean particle size is measured based on volume with a laser diffraction particle size distribution analyzer (e.g., Powrex Corp: […] VIEWER, Shimadzu Corp: SALD-3000J, or […]: HELOS & RODOS).
The particle size distribution of components of interest, macromolecules, other additives, mixed powder of components of interest and other additives, resulting coated component of interest-containing hollow particles, and coatable microparticles was measured based on volume with a laser diffraction particle size distribution analyzer (e.g., Powrex Corp: […] VIEWER or […]: HELOS & RODOS).

[2] = Dissolution test (paddle method, revised 16th Japanese Pharmacopoeia), HPLC; format: physicochemical; conditions: 50% dissolution time after coating / before coating (uncoated nucleus)
Experimental: Dissolution tests were conducted using the tablets manufactured in Comparative Example 2 and Example 2. Water of 37° C./900 ML was used as the test solution for measurement at a number of rotations of 50 RPM based on the paddle method of a dissolution test method in the revised 16th Japanese Pharmacopoeia. The measurement times were 10, 15, 30, 45, 60, 90, 120, 360, 720, 1080, and 1440. The sampling solution was filtered and measured by HPLC to calculate the dissolution rate.
<HPLC Measurement Conditions> • Detector: ultraviolet visible spectrophotometer • Measurement wavelength: 285 NM • Column: WATERS ACQUITY UPLC C18 [2.1 MM Φ×30 MM] • Colum temperature: 40° C. • Amount of flow: 0.5 ML/MIN • Amount injected: […] • Sample cooler: 25° C. • Syringe cleansing solution: water/acetonitrile mixture=1/1 • Mobile phase: water/acetonitrile mixture=4/1
A dissolution test was conducted using the particles manufactured in Example 4 and particles manufactured in Comparative Example 1. The test conditions were the same as Test Example 1.
A dissolution test was conducted using the coated component of interest-containing hollow particles manufactured in Example 5. The test conditions were the same as Test Example 1. […] The dissolution time was extended by a factor of 2 or greater. Improvement in the ability to control release of macromolecules constituting nuclear particles was confirmed for all coated component of interest-containing hollow particles using water insoluble particles as coatable microparticles.
A dissolution test was conducted using the particles manufactured in Example 7-2 and tablets manufactured in Example 8-1 and Comparative Examples 8-1 and 8-2. The test conditions were the same as in Test Example 1.
A dissolution test was conducted using the particles manufactured in Example 11 and Comparative Example 11. The test conditions were the same as Test Example 1.
A dissolution test was conducted using the particles manufactured in Comparative Example 12B. The test conditions were the same as Test Example 1.

Row | SMILES | D10 [1] [µm] | D50 [1] [µm] | D90 [1] [µm] | Ratio of 50% dissolution time with respect to nucleus (JP 1st) [2]
1 | NS(=O)(=O)Cc1noc2ccccc12 [Compound A, 1,2-BENZISOXAZOLE-3-METHANESULFONAMIDE] | 0.73 | 1.99 | 5.16 | 
2 | COc1cc(N)c(Cl)cc1C(=O)NC[C@H]1CN(CC2CCN(C(=O)CO)CC2)CCO1 [Compound D] |  |  |  | ≥ 63
3 | CC(=O)Nc1ccc(O)cc1 [Compound E, N-(4-HYDROXYPHENYL)ACETAMIDE] |  |  |  | ≥ 21
4 | Cn1c(=O)c2c(ncn2C)n(C)c1=O [Compound F, 1,3,7-TRIMETHYLPURINE-2,6-DIONE] |  |  |  | ≥ 235
